Series [1] in a line: Pharmacokinetics studies in rats. The conditions noted are these: male, Sprague-Dawley, plasma, rat. In kind it is in vivo. Here is the method: Six male Sprague‐Dawley rats (180–200 g) were randomly divided into two groups to receive […] of LN‐7 at 2 mg kg^−1 (iv administration) or 10 mg kg^−1 (po administration). LN‐7 was dissolved in DMSO, and then diluted at a concentration of 1 mg mL^−1 in 3% DMSO, 10% solutol HS‐15, and 87% double‐distilled water for dosing. Rats were purchased from Beijing Vital River Laboratory Animal Technology Co., Ltd. (Qualification No. SCXK(SH) 2021‐0011). Animals were subjected to 12 h alternating light and dark cycles, ad libitum access to drinking water and food, and fasting for 12 h prior to the initiation of treatments. For the oral dose at 10 mg kg^−1, blood samples were collected at 0.083, 0.25, 0.5, 1, 2, 4, 6, 8, and 24 h postadministration. For the intravenous dose (at 2 mg kg^−1), blood samples were collected at 0.083, 0.25, 0.5, 1, 2, 4, 6, 8, and 24 h postadministration. Twenty µL of blood were mixed with a 200 µL solution of methanol:acetonitrile (1:1), vortexed for 5 min, and centrifuged (4000 rpm, 4 °C, 10 min) to obtain plasma within 30 min of sampling. The supernatant was analyzed by liquid chromatography–tandem mass spectrometry. Chromatographic separation was performed using an ACQUITY UPLC HSS T3 column (2.1 × 50 mm, 1.8 µm). […] Gradient elution was carried out at a flow rate of 0.8 mL min^−1. […] Mass spectrometric detection was performed with an electrospray ionization source operating in positive ion mode. Quantification was achieved using multiple reaction monitoring with the following transitions: m/z 403.15.
Pharmacokinetic parameters such as AUC, T 1/2, and C max were calculated with the WinNonlin software.

The next series concerns BALB/c mice. The conditions noted are these: oral, five consecutive days, LN‐7 25, 50, 75 mg kg−1, acyclovir 50 mg kg−1, 12 days. How it is done:
BALB/c mice were purchased from Charles River Laboratories Spain and maintained at the Animal Facility of the CBM (Madrid, Spain). The toxicity of the test compound LN‐7 was investigated in BALB/c mice dosed as a solution at 25, 50, and 75 mg kg^−1. The compound was formulated in 3% DMSO + 10% solutol HS‐15 + 87% double‐distilled water (20 mg mL^−1). Animals had free access to food and water throughout each study. […] Compounds were orally administered for five consecutive days. Animals were monitored daily for clinical signs (piloerection, lethargy, eye closure), body weight loss, and survival. Oral administration and symptom monitoring was performed by researchers that were aware of the treatment condition (group allocation) for each animal. […] Animals with score 4 were defined as the humane endpoint on which the animal must be euthanized. On day 12, mice were sacrificed and whole blood was obtained by cardiac puncture. Several parameters were analyzed to monitor renal, hepatic, and immunological basic profiles. Body weight was also monitored to exclude weight loss or lack of weight gain that would be indicative of toxicity.

In another series the test system is HSV‐1. Description: HSV‐1 infection model in BALB/c mice. The class given is in vivo. The conditions noted are these: for clinical symptoms of the infection / morbidity: oral LN‐7 75 mg kg−1 or acyclovir 50 mg kg−1; for survival: 8 days postinfection.
Series [2] in a line: Cell viability (MTT) in Vero cells. The conditions noted are these: African green monkey.
In series [3] the test system is ACV‐resistant HSV‐1 strain F‐TKGF. Description: Antiviral assay, ACV‐resistant HSV‐1 strain F‐TKGF in Vero cells. The conditions noted are these: Human alphaherpesvirus 1, Vero, read-out: EC50 against ACV‐resistant strain F‐TKGF.
For series [4], the system named is recombinant HSV‐2 GFP strain. Conditions: Human alphaherpesvirus 2, Vero, read-out: EC50 against recombinant HSV‐2 GFP strain.
For series [5], the system named is HSV‐2 strains G and Lovelace. Description: Antiviral assay, HSV‐2 strains G and Lovelace in Vero cells (viral titer, TCID50). Conditions: 10 µM, 24 h post‐infection.
A further series has as its target HSV‐1 pUL15C (Human herpesvirus 1, UniProt P04295). Description: HSV‐1 pUL15C nuclease inhibition enzymatic assay (32P‐labeled 33‐bp dsDNA substrate). In kind it is biochemical. The conditions noted are these: for inhibition at 50 µM: read-out: percentage inhibition of pUL15C nuclease activity at the highest concentration tested; for IC50: concentration required to inhibit by 50% the pUL15C nuclease activity, 37 °C, 1 mM MnCl2, 15 min.

Setting [6] is: treatment after infection, days 0-3 p.i., LN‐7 75 mg kg−1, acyclovir 50 mg kg−1 or both.

16 compounds from paper PMC12622528, “Discovery of a Baloxavir‐Inspired Endonuclease Inhibitor That Prevents Herpes Simplex Virus 1 Replication in Cell Culture and In Vivo” (Advanced Science, 2025) can be followed below.

A value given as a limit tells only on which side of the number the result lay.

Chain of HSV‐1 pUL15C (P04295 471-735): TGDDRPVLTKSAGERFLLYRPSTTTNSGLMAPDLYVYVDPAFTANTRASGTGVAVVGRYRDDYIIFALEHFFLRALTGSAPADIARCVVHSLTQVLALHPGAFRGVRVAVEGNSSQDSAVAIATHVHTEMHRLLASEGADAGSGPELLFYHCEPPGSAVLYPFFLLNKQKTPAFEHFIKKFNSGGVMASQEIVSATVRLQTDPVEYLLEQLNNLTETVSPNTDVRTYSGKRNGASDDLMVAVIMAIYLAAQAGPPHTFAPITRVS

Regarding `O=C1c2c(O)c(=O)ccn2N(Cc2ccc(-c3ccccc3)cc2)[C@@H]2COCCN12` [Compound 17, (R)-12-([1,1'-biphenyl] -4-ylmethyl)-7-hydroxy-3,4,12,12a-tet rahydro-1H-[1,4] oxazino[3,4-c] pyrido[2,1-f] [1,2,4] triazine-6,8-dione], in series [1] (IV 2 mg/Kg), the AUC(0-inf) (commonly total exposure, with the tail of the curve extrapolated) is 1230 ± 182 ng·h/mL; the concentration peaked (Cmax) at 782 ± 63.2 ng/mL; the Tmax (in general, the time from dosing to the highest level) amounted to 0.0833 h; the clearance – broadly, a measure of how efficiently the substance is removed, as volume per time – was 27.4 mL/min/kg. In addition, the half-life (as a rule, how long it takes for the measured level to halve) in series [1] (IV 2 mg/Kg) is 6.24 ± 1.24 h. The Vd in series [1] (IV 2 mg/Kg, read-out: Vz) turned out to be 15.1 ± 4.05 L/kg. For the same compound, in series [1] (PO 10 mg/Kg), the AUC(0-inf) came out at 2980 ± 763 ng·h/mL, the peak level (Cmax) was 573 ± 152 ng/mL, the Tmax stood at 2 h and the half-life is 5.54 ± 0.676 h. Besides, the “toxic symptoms or mortality” value in the series on BALB/c mice is reported as “did not show any toxic symptoms or mortality”. Also, the “HSV‐1 titers in lung, brain, olfactory bulb and spleen tissues” value in the series with HSV‐1 (prophylactic setting, oral LN‐7 75 mg kg−1, days −1 to 3 p.i., day 8 p.i.) is given as “decreased around one to two orders of magnitude”. Also, in the series with HSV‐1 (prophylactic setting), the “clinical symptoms of the infection / morbidity” value is reported as “morbidity was higher for the LN‐7‐treated animals”. In the series with HSV‐1 (setting [6]), the clinical symptoms result is “clinical symptoms were alleviated”, the piloerection result was “piloerection was observed” and the survival result was “survived until the end of the experiment”. In the series on HSV‐1 (treatment after infection, days 0-3 p.i., LN‐7 75 mg kg−1, acyclovir 50 mg kg−1 or both, day 8 p.i.), the “viral titers in tissues (lungs, brain, olfactory bulb, kidneys, spleen)” value was “significant reductions in the viral titers in all analyzed tissues of treated mice, except for kidney tissue”. Further, the CC50 (as a rule, the concentration that lowers cell viability or growth by half) at 24 h in series [2] (Vero cells) came out at 38.8 µM. In addition, the EC50 (as a rule, the concentration at which the effect is half-maximal) in series [3] came to 3.2 ± 0.3 µM. Also, the concentration giving a half-maximal response (EC50) in series [4] came to 3.6 ± 1.8 µM. Besides, the “reduction in the viral titer” value in series [5] was “reduction of two orders of magnitude”.
Consider `CC(C)c1ccc(O)c(=O)c(O)c1` [β‐thujaplicinol, reference compound], for which the CC50 at 24 h in series [2] (Vero cells) was over 100 µM.
Turning to `O=C1c2c(O)c(=O)ccn2N(Cc2ccc(-c3ccc([N+](=O)[O-])cc3)cc2)[C@@H]2COCCN12` [Compound 32], at HSV‐1 pUL15C, the inhibition at 50 µM came out at 74.3% and the concentration for half-maximal inhibition (IC50) (in general, the concentration at which inhibition is half-maximal) was over 30 µM.
Consider `O=C1c2c(O)c(=O)ccn2N(Cc2ccc3ccc4cccc5ccc2c3c45)[C@@H]2COCCN12` [Compound 12], for which, at HSV‐1 pUL15C, the inhibition at 50 µM came to 65.4% and the concentration for half-maximal inhibition (IC50) was over 30 µM.
`O=C1c2c(O)c(=O)ccn2N(Cc2ccc(C(F)(F)F)cc2)[C@@H]2COCCN12` [Compound 7] came in with a CC50 at 24 h in series [2] (Vero cells) of over 100 µM.
On the same count and under the same terms, with `O=C1c2c(O)c(=O)ccn2N(Cc2ccc(-c3ccc(F)cc3)cc2)[C@@H]2COCCN12` [Compound 30] the figure was over 66.5 µM.
In series [2], `COC(=O)OCOc1c2n(ccc1=O)N([C@@H]1c3ccccc3SCc3c1ccc(F)c3F)[C@@H]1COCCN1C2=O` [Baloxavir marboxil, reference compound] registered a CC50 at 24 h of over 100 µM.
For the compound `COc1ccc(-c2ccc(CN3[C@@H]4COCCN4C(=O)c4c(O)c(=O)ccn43)cc2)cc1` [Compound 33], at HSV‐1 pUL15C, the IC50 was 19.4 ± 1.3 µM.
Consider `O=C1c2c(O)c(=O)ccn2N(Cc2ccc(-c3ccc4[nH]ccc4c3)cc2)[C@@H]2COCCN12` [Compound 19], for which, on HSV‐1 pUL15C, the inhibition at 50 µM worked out at 51.5% and the IC50 was over 30 µM.
The like results for `O=C1c2c(O)c(=O)ccn2N(Cc2ccc(-c3ccc(Cl)cc3)cc2)[C@@H]2COCCN12` [Compound 31] were, in that order, 48.1% and over 30 µM.
Take `Nc1nc2c(ncn2COCCO)c(=O)[nH]1` [Acyclovir (ACV), Acyclovir, reference compound]: the “toxic symptoms or mortality” value in the series with BALB/c mice is reported as “did not show any toxic symptoms or mortality”. Further, the “clinical symptoms of the infection / morbidity” value with HSV‐1 (prophylactic setting) is recorded as “Clinical symptoms of the infection were observed”. In the series on HSV‐1 (setting [6]), the clinical symptoms entry was “clinical symptoms were alleviated”, the piloerection result is recorded as “piloerection was observed” and the survival result is “survived until the end of the experiment”. Moreover, the CC50 at 24 h in series [2] (Vero cells) is over 100 µM. Further, the EC50 in series [3] was over 20 µM.
In series [2] (Vero cells), `O=C1c2c(O)c(=O)ccn2N(Cc2ccc(Cl)c(F)c2)[C@@H]2COCCN12` [Compound 10] came in with a half-maximal cytotoxic concentration (CC50) at 24 h of over 100 µM.
`O=C1c2c(O)c(=O)ccn2N(Cc2ccc(-c3ccc(OC(F)(F)F)cc3)cc2)[C@@H]2COCCN12` [Compound 34] registered a CC50 at 24 h in series [2] (Vero cells) of over 52.8 µM.
With `O=C1c2c(O)c(=O)ccn2N([C@@H]2c3ccccc3SCc3c2ccc(F)c3F)[C@@H]2COCCN12` [Baloxavir acid, reference compound], the CC50 at 24 h in series [2] is over 100 µM.
Compound `O=C1c2c(O)c(=O)ccn2N(Cc2ccc(-c3ccco3)cc2)[C@@H]2COCCN12` [Compound 16, (R)-12-(4-(furan-2-yl)benzyl)-7-hydroxy-3,4,12,12a-tetrahydro-1H-[1,4] oxazi no[3,4-c] pyrido[2,1-f] [1,2,4] triazine-6,8-dione] had a CC50 at 24 h in series [2] (Vero cells) of over 100 µM.
Regarding `O=C(Nc1ccccc1)c1ccc(-c2ccc(CN3[C@@H]4COCCN4C(=O)c4c(O)c(=O)ccn43)cc2)cc1` [Compound 40], at HSV‐1 pUL15C, the inhibition at 50 µM is 42.7% and the IC50 is over 30 µM.
